Reference: patent publication US6335339B1, “Triazine antiviral compounds” (Scriptgen Pharmaceuticals, Inc., priority 1998, dated 2002)

Tested on: HBV εRNA
Assay: εRNA/oligonucleotide hybridization inhibition assay with rRNA competitor
Assay type: binding, Hepatitis B virus
Settings: for IC50 / HBV + rRNA IC50 (μM): radiolabeled εRNA, 60-fold excess rRNA competitor; for Specificity: ratio RRE+rRNA IC50/εRNA+rRNA IC50, max = inactive in RRE assay
Procedure, shortened: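 Inhibition of hybridization between 25 nM [32P]-εRNA and 100 nM biotinylated complementary oligonucleotide (50 mM Tris-HCl pH 7.5, 200 mM KCl, 5 mM MgCl2, 60 min, 25 °C), hybrids captured by streptavidin filter and counted. Titrations 0.1-200 μM with 60-fold excess rRNA; specificity = RRE+rRNA IC50/εRNA+rRNA IC50.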

| Structure (SMILES) | IC50 [µM] | Specificity | HBV + rRNA IC50 (μM) |
| --- | --- | --- | --- |
| CCCCN(CCCC)c1nc(NN=Cc2ccc(Cl)cc2)nc(Nc2ccc([N+](=O)[O-])cc2)n1 [Compound 16] | 12.1 | max. | – |
| O=[N+]([O-])c1ccc(Nc2nc(NCc3ccccc3)nc(N3CCOCC3)n2)cc1 [Compound 231] | 195 | max. | – |
| COc1cccc(C=NNc2nc(Nc3ccccc3)nc(N3CCCC3)n2)c1O [Compound 170] | 6.2 | 119.3 | – |
| Cc1ccccc1Nc1nc(NN=Cc2ccc(I)cc2)nc(Nc2ccc([N+](=O)[O-])cc2)n1 [Compound 10] | 12 | max. | – |
| Cc1ccc(Nc2nc(NCc3ccccc3)nc(NN=Cc3cc(Br)cc(Br)c3O)n2)cc1C [Compound 219] | – | – | inactive |
| Oc1ccc(Br)cc1C=NNc1nc(Nc2cccc(C(F)(F)F)c2)nc(N2CCOCC2)n1 [Compound 246] | 5.6 | max. | – |
| O=C(NNc1nc(Nc2ccccc2)nc(Nc2cccc(C(F)(F)F)c2)n1)c1cccc(Br)c1 [Compound 220] | 27.6 | 33.3 | – |
| Cc1ccc(Nc2nc(NN=Cc3ccccc3)nc(Nc3ccccc3)n2)c(C)c1 [Compound 7] | 2.4 | max. | – |
| CCCCN(CCCC)c1nc(NN=Cc2ccc(OCC)c(O)c2)nc(Nc2ccc([N+](=O)[O-])cc2)n1 [Compound 23] | 5.7 | max. | – |
| Brc1ccc(Nc2nc(NCc3ccccc3)nc(Nc3ccc(Br)cc3)n2)cc1 [Compound 230] | 20.9 | max. | – |
| Oc1c(Br)cc(Cl)cc1/C=N/Nc1nc(Nc2cccc(C(F)(F)F)c2)nc(N2CCOCC2)n1 [Compound 34] | 21 | max. | – |
| CCN(CC)CCNc1ccc2c3c(cccc13)C(=O)N(Nc1nc(NCc3ccccc3)nc(N(CC)CC)n1)C2=O [Compound 27] | 15.5 | max. | – |
| COc1ccc(Nc2nc(NCc3cccc([N+](=O)[O-])c3)nc(NCc3cc(F)ccc3F)n2)cc1OC [Compound 225] | 193 | max. | – |
| CC(=NNc1nc(Nc2ccccc2)nc(N2CCCC2)n1)c1ccc(F)cc1 [Compound 227] | 12.8 | max. | – |
| Fc1cccc(C=NNc2nc(Nc3ccccc3)nc(N3CCCC3)n2)c1 [Compound 201] | 53 | max. | – |
| Cc1ccc(Nc2nc(NNC(=O)c3ccccc3O)nc(Oc3ccc([N+](=O)[O-])cc3)n2)cc1C [Compound 250] | – | – | inactive |
| COc1ccc(C=NNc2nc(NCc3ccccc3)nc(Nc3ccccc3)n2)cc1 [Compound 165] | 18.8 | max. | – |

| Structure (SMILES) | IC50 [µM] | Specificity | HBV + rRNA IC50 (μM) |
| --- | --- | --- | --- |
| CCN(CC)c1nc(NCc2ccccc2)nc(N/N=C/c2ccccc2O)n1 [Compound 155, 2-hydroxybenzaldehyde N-[4-(benzylamino)-6-(diethylamino)-1,3,5-triazin-2-yl]hydrazone] | 25.5 | max. | – |
| Cc1ccc(Nc2nc(NN=Cc3cccc([N+](=O)[O-])c3)nc(Nc3ccccc3)n2)c(C)c1 [Compound 229] | 4.4 | max. | – |
| FC(F)(F)c1cccc(Nc2nc(Nc3ccccc3)nc(N3CCOCC3)n2)c1 [Compound 21] | 14.4 | max. | – |
| Oc1ccc(Br)cc1C=NNc1nc(Nc2cccc(Br)c2)nc(N2CCOCC2)n1 [Compound 232] | 45.5 | max. | – |
| COc1ccc(Nc2nc(NN=Cc3ccc(O)cc3O)nc(Nc3ccccc3)n2)cc1 [Compound 158] | 7.4 | max. | – |
| COc1ccc(Nc2nc(NCCc3ccccc3)nc(N(C)C)n2)cc1OC [Compound 252] | – | – | inactive |
| COc1ccc(Br)cc1/C=N/Nc1nc(Nc2cccc([N+](=O)[O-])c2)nc(N2CCOCC2)n1 [Compound 28] | 18.9 | max. | – |
| COc1c(C=NNc2nc(N3CCCC3)nc(N3CCOCC3)n2)cccc1[N+](=O)[O-] [Compound 193] | 28 | max. | – |
| CCN(CC)c1nc(Nc2cccc(Br)c2)nc(Nc2cc(C)ccc2C)n1 [Compound 202] | 68 | max. | – |
| COc1ccc(Nc2nc(NN=Cc3ccc(O)cc3O)nc(N3CCOCC3)n2)cc1 [Compound 164] | 48 | max. | – |
| Cc1ccc(Nc2nc(NN=Cc3ccc(Cl)cc3)nc(N3CCOCC3)n2)cc1Cl [Compound 196] | 32.7 | max. | – |
| FC(F)(F)c1cccc(Nc2nc(NN=Cc3ccc(Cl)cc3)nc(N3CCOCC3)n2)c1 [Compound 120] | 46 | 24.1 | – |
| Cc1ccccc1Nc1nc(NN=Cc2ccc3c(c2)OCO3)nc(Nc2ccc([N+](=O)[O-])cc2)n1 [Compound 29] | 24.8 | max. | – |
| C(=Cc1ccccc1)C=NNc1nc(Nc2ccccc2)nc(N2CCCC2)n1 [Compound 213] | 15.6 | 33.3 | – |
| COc1ccccc1C=NNc1nc(NCc2ccccc2)nc(Nc2ccccc2)n1 [Compound 195] | 28.2 | max. | – |
| O=C(CSc1nc(SCC(=O)Nc2ccccc2C(F)(F)F)nc(SCC(=O)Nc2ccccc2C(F)(F)F)n1)Nc1ccccc1C(F)(F)F [Compound 212] | 23.1 | max. | – |
